Results from ChEMBL document CHEMBL1201862, “PubChem BioAssay data set” (2004).
The source made the active and inactive calls.

Assays:
[1] = inhibitors of firefly luciferase expression or activity, dose response, H4 neuroglioma cells, luminescence (AID 1990); assay type: functional, cell-based
[2] = Luminescence Cell-Based Dose Response HTS to Identify Inhibitors of 5'UTR Stem-Loop Driven Prion Protein mRNA Translation in H4 Neuroglioblastoma Cells. [Related pubchem assays: 1827 (Project Summary), 1813 (Primary HTS)]; assay type: functional
[3] = inhibitors of SNCA 5'UTR-driven reporter translation, confirmation, H4 neuroglioma cells, luminescence (AID 1988); assay type: functional, cell-based
[4] = target: Exodeoxyribonuclease V (Escherichia coli (strain K12), UniProt P04993+P07648+P08394); assay: E. coli RecBCD inhibitors, dose response, counter-screen for AddAB inhibitor project, absorbance, V66 E. coli, mutant T4 phage (AID 492957); assay type: functional, cell-based, Escherichia coli str. K-12 substr. MG1655
[5] = Counterscreen for AddAB inhibitors: absorbance-based bacterial cell-based high throughput dose response assay for inhibitors of bacterial viability. [Related pubchem assays (depositor defined):AID435030, AID449728, AID449731, AID488942, AID488955, AID488956]; assay type: functional
[6] = target: Lysine-specific demethylase 4C (Homo sapiens, UniProt Q9H3R0); assay: GASC-1 (JMJD2C) histone demethylase inhibitors, dose response, biochemical, DELFIA europium, cherry-picked samples (AID 488835); assay type: functional
[7] = target: Estrogen receptor beta (Homo sapiens, UniProt Q92731); assay: ERβ–SRC-3 coactivator interaction inhibitors, confirmation, orthogonal assay, biochemical, ELISA, streptavidin-HRP readout (AID 1060)
[8] = target: T1, Mannose-6-phosphate isomerase (Homo sapiens, UniProt P34949); assay: human PMI inhibitors, high substrate, primary screen, biochemical, fluorescence intensity, high mannose 6-phosphate (AID 1220)
T1 sequence (P34949 whole entry): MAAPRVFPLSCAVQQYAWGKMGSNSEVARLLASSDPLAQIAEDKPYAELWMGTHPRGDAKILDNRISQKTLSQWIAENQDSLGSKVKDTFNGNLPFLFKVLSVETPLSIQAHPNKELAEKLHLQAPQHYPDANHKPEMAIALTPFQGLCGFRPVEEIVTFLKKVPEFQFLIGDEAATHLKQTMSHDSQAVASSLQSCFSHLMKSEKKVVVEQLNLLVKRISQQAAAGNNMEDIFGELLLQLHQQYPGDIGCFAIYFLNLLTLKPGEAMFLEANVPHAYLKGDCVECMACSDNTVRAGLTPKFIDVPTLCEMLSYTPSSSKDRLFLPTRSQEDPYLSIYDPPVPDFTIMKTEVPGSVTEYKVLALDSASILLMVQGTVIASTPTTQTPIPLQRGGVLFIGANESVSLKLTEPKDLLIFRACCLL

[9] = target: Intestinal-type alkaline phosphatase (Homo sapiens, UniProt P09923); assay: activation of human intestinal alkaline phosphatase – biochemical, dose response (AID 488873); assay type: functional
[10] = target: Intestinal-type alkaline phosphatase (Mus musculus, UniProt P24822); assay: mouse intestinal alkaline phosphatase activators, dose response, biochemical, luminescence, uHTS hits (AID 488783); assay type: functional
[11] = target: T2, Alkaline phosphatase, tissue-nonspecific isozyme (Homo sapiens, UniProt P05186); assay: TNAP enzyme activators, dose response, selectivity assay for mouse IAP activator project, biochemical, TNAP isozyme, mouse IAP uHTS hits (AID 488880); assay type: functional
T2 sequence (P05186 whole entry): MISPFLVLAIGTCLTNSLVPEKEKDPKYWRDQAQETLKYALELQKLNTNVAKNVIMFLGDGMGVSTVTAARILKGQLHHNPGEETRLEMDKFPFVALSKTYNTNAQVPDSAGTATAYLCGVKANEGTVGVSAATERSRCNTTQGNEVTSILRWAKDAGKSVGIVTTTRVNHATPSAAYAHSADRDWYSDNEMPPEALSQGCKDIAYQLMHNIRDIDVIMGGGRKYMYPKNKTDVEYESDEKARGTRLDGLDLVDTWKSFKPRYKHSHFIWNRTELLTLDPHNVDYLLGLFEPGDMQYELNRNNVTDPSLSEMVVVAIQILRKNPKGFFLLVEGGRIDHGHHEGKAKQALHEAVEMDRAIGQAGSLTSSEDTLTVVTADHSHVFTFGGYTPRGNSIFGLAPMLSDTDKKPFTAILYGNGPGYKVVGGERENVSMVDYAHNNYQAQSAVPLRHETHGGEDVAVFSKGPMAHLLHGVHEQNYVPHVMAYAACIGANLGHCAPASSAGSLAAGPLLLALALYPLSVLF

[12] = target: T3, Kappa-type opioid receptor (Homo sapiens, UniProt P41145); assay: KOR agonist analogs, arrestin-GFP redistribution, SAR follow-up, imaging, image-based, set 3 (AID 488833); assay type: functional
[13] = target: Mu-type opioid receptor (Homo sapiens, UniProt P35372); assay: SAR Analysis of Agonists of the MOR Receptor using an Image-Based Assay - Set 3. [Related pubchem assays (depositor defined):AID1777, AID1785, AID1786, AID1966, AID2133, AID2136, AID2284, AID2285, AID2352]; assay type: functional
[14] = target: Delta-type opioid receptor (Homo sapiens, UniProt P41143); assay: SAR Analysis of Agonists of the DOR Receptor using an Image-Based Assay - Set 3. [Related pubchem assays (depositor defined):AID1777, AID1786]; assay type: functional
[15] = target: T3, Kappa-type opioid receptor; assay: SAR analysis of small molecule agonists of the kappa opioid receptor via a luminescent beta-arrestin assay - Set 3. [Related pubchem assays (depositor defined):AID1777, AID1785, AID1786, AID1966, AID2133, AID2136, AID2284, AID2500]; assay type: functional
[16] = mammalian cell cytotoxicity, dose response, cytotoxicity control, plate reader, cherry-pick samples (AID 504397); assay type: functional, cell-based
[17] = target: T4, RNA-binding protein pos-1 (Caenorhabditis elegans, UniProt G5EF15); assay: inhibitors of POS-1/mex-3 RNA binding, dose response, biochemical, fluorescence polarization (AID 1964);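 also: purified POS-1 fused to maltose binding protein made in E. coli; potency of compounds blocking POS-1 binding to fluorescent RNA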
T4 sequence (G5EF15 whole entry): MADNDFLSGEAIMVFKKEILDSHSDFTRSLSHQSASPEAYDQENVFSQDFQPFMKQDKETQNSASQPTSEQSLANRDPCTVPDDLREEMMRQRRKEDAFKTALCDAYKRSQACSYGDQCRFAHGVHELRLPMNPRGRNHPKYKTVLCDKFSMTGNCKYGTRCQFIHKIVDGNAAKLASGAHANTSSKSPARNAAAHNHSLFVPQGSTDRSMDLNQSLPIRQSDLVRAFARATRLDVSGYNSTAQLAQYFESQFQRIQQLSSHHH

[18] = target: T5, Runt-related transcription factor 1/Core-binding factor subunit beta (Homo sapiens, UniProt Q01196+Q13951); assay: inhibitors of RUNX1 Runt–CBFb-SMMHC binding, primary screen, biochemical, FRET, Cerulean-Runt, Venus-CBFb-SMMHC, uHTS (AID 1434); assay type: protein assay;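 also: partner is the CBFb-SMMHC leukemia fusion protein rather than wild-type CBFb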
[19] = target: T6, Zinc finger protein mex-5 (Caenorhabditis elegans, UniProt Q9XUB2); assay: MEX-5/TCR-2 RNA interaction inhibitors, dose response, biochemical, C. elegans, fluorescence polarization (AID 1960)
T6 sequence (Q9XUB2 whole entry): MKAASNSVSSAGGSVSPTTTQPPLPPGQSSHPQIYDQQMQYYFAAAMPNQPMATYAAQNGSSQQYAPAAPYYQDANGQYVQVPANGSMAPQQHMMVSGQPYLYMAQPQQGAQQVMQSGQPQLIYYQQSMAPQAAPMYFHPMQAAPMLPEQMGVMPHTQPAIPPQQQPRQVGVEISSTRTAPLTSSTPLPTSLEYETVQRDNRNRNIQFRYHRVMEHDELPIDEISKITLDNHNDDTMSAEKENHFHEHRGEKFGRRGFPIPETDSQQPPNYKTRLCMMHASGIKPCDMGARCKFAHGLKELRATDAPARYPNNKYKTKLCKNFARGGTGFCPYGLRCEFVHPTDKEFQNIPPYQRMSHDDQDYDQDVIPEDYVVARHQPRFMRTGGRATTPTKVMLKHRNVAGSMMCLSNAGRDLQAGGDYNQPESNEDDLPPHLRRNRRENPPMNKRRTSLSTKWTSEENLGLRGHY

[20] = target: T5, Runt-related transcription factor 1/Core-binding factor subunit beta; assay: inhibitors of RUNX1 Runt–CBFb-SMMHC binding, biochemical, TR-FRET (AID 1438); assay type: protein assay
[21] = target: Induced myeloid leukemia cell differentiation protein Mcl-1 (Homo sapiens, UniProt Q07820); assay type: functional
Chain of Induced myeloid leukemia cell differentiation protein Mcl-1 (Q07820 whole entry): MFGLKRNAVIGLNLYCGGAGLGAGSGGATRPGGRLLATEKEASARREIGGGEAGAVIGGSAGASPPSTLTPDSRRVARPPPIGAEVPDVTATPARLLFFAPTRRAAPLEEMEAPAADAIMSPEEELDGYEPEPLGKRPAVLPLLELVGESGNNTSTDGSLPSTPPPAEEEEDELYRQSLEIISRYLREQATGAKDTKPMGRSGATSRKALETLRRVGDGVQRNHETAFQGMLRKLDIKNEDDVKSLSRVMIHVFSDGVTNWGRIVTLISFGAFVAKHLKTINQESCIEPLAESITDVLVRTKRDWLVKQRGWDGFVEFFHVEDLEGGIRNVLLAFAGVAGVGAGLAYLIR

T3 sequence (P41145 whole entry): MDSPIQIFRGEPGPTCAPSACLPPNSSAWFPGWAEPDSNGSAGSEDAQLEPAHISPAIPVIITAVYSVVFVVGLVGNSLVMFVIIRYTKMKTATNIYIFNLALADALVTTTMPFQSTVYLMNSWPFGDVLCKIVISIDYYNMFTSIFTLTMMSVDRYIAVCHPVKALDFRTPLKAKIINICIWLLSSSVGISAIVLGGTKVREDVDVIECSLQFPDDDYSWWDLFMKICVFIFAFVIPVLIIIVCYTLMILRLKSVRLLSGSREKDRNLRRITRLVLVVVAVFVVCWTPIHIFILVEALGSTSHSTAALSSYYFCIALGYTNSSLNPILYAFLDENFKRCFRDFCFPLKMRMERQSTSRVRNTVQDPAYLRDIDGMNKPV
T5 sequence (Q01196 whole entry, the tested form may be a part): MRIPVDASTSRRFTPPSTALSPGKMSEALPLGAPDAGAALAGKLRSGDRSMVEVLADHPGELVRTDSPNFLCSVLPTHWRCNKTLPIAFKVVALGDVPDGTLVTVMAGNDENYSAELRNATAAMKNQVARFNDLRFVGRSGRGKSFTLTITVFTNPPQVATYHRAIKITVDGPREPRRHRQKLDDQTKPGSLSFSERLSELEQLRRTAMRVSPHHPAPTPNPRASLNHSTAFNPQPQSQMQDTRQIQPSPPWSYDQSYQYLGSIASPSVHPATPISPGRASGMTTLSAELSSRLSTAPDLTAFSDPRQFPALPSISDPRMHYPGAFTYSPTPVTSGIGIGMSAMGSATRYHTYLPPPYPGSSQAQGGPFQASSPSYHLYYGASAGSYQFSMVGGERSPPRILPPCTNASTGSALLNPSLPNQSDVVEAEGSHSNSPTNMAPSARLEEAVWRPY
T5 sequence (Q13951 whole entry, the tested form may be a part): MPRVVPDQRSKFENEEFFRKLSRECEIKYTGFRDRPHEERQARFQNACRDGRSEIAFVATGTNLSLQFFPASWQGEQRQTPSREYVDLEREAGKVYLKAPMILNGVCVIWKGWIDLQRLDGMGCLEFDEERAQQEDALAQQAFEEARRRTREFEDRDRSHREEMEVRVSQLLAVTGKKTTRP
Chain of Estrogen receptor beta (Q92731 whole entry): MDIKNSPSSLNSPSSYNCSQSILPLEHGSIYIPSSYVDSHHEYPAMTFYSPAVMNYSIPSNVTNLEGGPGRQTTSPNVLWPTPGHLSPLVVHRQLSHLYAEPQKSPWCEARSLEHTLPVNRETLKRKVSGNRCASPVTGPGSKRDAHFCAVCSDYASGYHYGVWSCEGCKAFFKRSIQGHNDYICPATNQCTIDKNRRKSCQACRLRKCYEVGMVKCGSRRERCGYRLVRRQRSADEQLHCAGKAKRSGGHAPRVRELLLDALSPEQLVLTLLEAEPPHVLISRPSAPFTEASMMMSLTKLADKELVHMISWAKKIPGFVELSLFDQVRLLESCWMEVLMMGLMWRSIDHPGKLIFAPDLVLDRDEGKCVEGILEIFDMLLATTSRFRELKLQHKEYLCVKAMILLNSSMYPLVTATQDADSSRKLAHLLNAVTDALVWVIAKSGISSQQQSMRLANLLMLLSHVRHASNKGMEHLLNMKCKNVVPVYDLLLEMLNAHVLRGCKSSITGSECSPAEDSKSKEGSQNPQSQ
Chain of Intestinal-type alkaline phosphatase (Homo sapiens, UniProt P09923) (P09923 whole entry): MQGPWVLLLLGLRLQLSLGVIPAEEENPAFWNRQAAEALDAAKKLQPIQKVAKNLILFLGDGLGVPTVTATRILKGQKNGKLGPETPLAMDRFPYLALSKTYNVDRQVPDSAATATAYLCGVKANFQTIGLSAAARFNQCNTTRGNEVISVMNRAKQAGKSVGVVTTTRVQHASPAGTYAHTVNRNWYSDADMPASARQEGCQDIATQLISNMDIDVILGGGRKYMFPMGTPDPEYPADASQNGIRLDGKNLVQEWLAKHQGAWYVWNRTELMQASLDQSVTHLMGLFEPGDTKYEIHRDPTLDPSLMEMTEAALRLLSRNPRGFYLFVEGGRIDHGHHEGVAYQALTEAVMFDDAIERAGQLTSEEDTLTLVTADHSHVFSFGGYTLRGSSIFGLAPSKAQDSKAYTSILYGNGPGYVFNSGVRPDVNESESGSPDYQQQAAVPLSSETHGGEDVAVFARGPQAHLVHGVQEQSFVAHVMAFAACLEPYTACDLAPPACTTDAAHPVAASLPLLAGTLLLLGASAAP
Chain of Mu-type opioid receptor (P35372 whole entry): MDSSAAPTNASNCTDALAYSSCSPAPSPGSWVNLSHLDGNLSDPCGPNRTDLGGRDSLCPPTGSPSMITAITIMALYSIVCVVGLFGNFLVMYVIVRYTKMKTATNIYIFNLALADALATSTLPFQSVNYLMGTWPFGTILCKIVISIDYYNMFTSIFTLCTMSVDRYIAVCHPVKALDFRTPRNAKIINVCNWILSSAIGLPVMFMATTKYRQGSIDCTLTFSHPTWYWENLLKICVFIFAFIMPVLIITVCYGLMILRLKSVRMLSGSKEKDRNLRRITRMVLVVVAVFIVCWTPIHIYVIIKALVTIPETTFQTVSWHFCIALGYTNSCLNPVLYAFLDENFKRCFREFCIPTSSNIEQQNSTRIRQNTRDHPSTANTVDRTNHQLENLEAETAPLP
Chain of Delta-type opioid receptor (P41143 whole entry): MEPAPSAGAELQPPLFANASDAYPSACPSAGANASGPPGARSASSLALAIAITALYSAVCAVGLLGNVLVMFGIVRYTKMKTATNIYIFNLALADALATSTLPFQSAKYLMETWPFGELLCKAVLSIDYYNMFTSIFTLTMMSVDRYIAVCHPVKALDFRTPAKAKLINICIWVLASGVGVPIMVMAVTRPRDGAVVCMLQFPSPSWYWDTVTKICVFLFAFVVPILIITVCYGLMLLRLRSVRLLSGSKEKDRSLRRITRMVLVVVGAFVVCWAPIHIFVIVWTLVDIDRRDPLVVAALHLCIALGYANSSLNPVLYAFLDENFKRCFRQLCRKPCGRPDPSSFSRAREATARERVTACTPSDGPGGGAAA
Chain of Intestinal-type alkaline phosphatase (Mus musculus, UniProt P24822) (P24822 whole entry): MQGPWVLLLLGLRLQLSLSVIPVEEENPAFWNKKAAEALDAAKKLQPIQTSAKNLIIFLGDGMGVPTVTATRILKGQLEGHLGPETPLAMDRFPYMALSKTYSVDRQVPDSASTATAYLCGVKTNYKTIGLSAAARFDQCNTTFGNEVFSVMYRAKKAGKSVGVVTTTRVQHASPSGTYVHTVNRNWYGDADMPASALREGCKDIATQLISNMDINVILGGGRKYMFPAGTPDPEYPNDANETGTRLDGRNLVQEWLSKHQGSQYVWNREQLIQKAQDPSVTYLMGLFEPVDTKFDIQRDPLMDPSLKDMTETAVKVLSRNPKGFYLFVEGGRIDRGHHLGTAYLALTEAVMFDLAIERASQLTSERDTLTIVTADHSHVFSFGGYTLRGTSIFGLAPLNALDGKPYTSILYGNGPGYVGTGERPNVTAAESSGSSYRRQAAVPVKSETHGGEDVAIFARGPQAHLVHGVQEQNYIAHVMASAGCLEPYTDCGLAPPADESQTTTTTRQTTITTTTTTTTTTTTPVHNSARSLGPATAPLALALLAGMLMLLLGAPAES
Chain of Lysine-specific demethylase 4C (Q9H3R0 whole entry): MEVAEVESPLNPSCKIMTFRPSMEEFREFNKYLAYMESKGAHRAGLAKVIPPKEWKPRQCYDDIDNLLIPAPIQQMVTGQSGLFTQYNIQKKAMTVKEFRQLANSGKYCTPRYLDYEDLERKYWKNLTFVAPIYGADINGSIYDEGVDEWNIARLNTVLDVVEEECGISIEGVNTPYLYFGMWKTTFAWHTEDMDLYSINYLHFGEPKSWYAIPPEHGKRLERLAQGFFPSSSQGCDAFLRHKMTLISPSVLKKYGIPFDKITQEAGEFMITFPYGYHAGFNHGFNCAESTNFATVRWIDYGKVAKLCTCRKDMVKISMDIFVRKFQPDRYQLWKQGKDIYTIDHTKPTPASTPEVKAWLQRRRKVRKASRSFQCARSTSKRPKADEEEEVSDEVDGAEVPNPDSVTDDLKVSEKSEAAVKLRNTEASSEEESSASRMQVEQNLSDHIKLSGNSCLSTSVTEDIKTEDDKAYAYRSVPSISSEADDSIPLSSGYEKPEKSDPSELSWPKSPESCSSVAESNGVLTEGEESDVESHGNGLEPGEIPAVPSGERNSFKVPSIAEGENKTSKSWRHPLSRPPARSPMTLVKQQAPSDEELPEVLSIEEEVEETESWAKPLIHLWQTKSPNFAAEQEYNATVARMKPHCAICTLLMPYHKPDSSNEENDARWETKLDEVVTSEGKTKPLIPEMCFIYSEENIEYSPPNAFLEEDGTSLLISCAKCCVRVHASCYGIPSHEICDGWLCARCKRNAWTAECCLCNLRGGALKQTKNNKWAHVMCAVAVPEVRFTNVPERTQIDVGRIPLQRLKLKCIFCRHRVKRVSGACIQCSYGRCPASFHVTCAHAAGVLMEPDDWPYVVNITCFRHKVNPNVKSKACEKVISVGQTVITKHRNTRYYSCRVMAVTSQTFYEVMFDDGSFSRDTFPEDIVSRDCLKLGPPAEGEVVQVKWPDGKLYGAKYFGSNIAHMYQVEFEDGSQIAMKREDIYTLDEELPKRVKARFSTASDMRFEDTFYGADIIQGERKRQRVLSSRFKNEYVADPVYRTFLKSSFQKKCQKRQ

## CCCNC(=O)c1ccc2c(O)c(O)c(-c3ccsc3)nc2c1
[1]
  EC50: 11.7 µM (active)
[2]
  EC50: 10.6 µM (active)
[3]
  EC50: 8.96 µM (active)
[4]
  IC50: > 118 µM (inactive)
[5]
  IC50: > 118 µM (inactive)

## COc1ccc(NC(=O)C2CCCCN2N)cc1OCC(C)C (stereo unspecified)
[6]
  AC50: 27.6 µM (active)

## Oc1ccc2cc3c4cc(Br)ccc4nc-3oc2c1O
[7]
  IC50: 5.38 µM (not active)
[8]
  IC50: 30 µM (active)
[9]
  EC50: 21.2 µM (active)
[10]
  EC50: 22.1 µM (active)
[11]
  EC50: 24 µM (active)

## CC(C)c1ccc(CSc2nnc(-c3ccccn3)n2Cc2ccco2)cc1
[12]
  EC50: 2.84 µM (active)
[13]
  EC50: > 32 µM (inactive)
[14]
  EC50: > 64 µM (inactive)
[15]
  EC50: 5.97 µM (active)

## COc1ccccc1/C=C/C=N/NC(=O)CN1CCN(S(=O)(=O)c2ccc(C)cc2)CC1
[16]
  AC50: 132 µM (active)

## COc1ccc(C(=O)/N=c2\c(C#N)cc3c(=O)n4cccc(C)c4nc3n2Cc2ccco2)cc1
[17]
  EC50: 220 µM (active)
[18]
  IC50: 8.9 µM (active)
[19]
  EC50: > 300 µM (not active)
[20]
  IC50: 73.7 µM (inactive)
[21]
  IC50: 3.9 µM (active)
